Experimental data reported in ChEMBL document CHEMBL6109051, “Structure guided modification of 2-chloro-5-(ethyl-phenyl-sulfamoyl)-N-[2-(2-oxo-pyrrolidin-1-yl)-phenyl]-benzamide to afford selective inhibitors of Cryptosporidium parvum N-myristoyltransferase” (Bioorg Med Chem Lett, 2025).

What was measured:
Cryptosporidium parvum = assay: Antiparasitic activity against Cryptosporidium parvum assessed as inhibition of parasitic growth; format: functional, organism-based
[1] = Inhibition of Cryptosporidium parvum NMT
[2] = Selectivity index, ratio of IC50 for human NMT1 to IC50 for Cryptosporidium parvum NMT
[3] = target: T1, Glycylpeptide N-tetradecanoyltransferase 1 (Homo sapiens, UniProt P30419); assay: Inhibition of human NMT1
T1 sequence (P30419 whole entry): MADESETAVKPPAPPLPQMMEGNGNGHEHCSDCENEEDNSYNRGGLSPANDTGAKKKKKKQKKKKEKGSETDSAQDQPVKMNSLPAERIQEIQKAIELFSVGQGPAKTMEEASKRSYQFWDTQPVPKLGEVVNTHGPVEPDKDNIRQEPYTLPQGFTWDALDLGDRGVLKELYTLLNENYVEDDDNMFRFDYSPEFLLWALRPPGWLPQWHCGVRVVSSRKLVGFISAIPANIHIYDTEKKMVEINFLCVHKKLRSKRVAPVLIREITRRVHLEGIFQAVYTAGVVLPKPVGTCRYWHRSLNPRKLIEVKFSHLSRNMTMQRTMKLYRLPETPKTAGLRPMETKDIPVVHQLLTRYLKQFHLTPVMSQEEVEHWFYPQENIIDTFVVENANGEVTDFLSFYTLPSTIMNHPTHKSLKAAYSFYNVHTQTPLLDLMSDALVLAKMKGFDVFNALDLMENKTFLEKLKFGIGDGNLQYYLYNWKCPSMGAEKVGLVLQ

Row | IC50 [1] | Ratio IC50 [2] | IC50 [3] | Structure (SMILES) | EC50 (Cryptosporidium parvum)
1 | > 125 µM |  |  | CCN(c1ccccc1)S(=O)(=O)c1ccc(Cl)c(C(=O)Nc2ccccc2N2CCN(C(C)C)C2=O)c1 | > 20 µM
2 | > 125 µM |  |  | CCN(c1ccccc1)S(=O)(=O)c1ccc(Cl)c(C(=O)Nc2ccccc2N2CC(C)(C)CC2=O)c1 | > 20 µM
3 | 2.5 µM | 4.6 | 11.4 µM | CCN(c1ccccc1)S(=O)(=O)c1ccc(Cl)c(C(=O)Nc2ccccc2N2CCN(C)C2=O)c1 | 6.9 µM
4 | 52.8 µM | > 2 | > 125 µM | CCN(c1ccccc1)S(=O)(=O)c1ccc(Cl)c(C(=O)Nc2ccccc2N2CCN(CC3CC3)C2=O)c1 | > 20 µM
5 | > 125 µM |  |  | CCN(c1ccccc1)S(=O)(=O)c1ccc(Cl)c(C(=O)Nc2ccccc2N2CC(CC)(CC)CC2=O)c1 | > 20 µM
6 | 2.8 µM | > 44 | > 125 µM | CCN1CCN(c2ccccc2NC(=O)c2cc(S(=O)(=O)N(CC)c3ccccc3)ccc2Cl)C1=O | 16.4 µM
7 | 13.8 µM | > 9 | > 125 µM | CCN(c1ccccc1)S(=O)(=O)c1ccc(Cl)c(C(=O)Nc2ccccc2N2CCC(C)(C)C2=O)c1 | > 20 µM
8 | > 125 µM |  |  | CCN(c1ccccc1)S(=O)(=O)c1ccc(Cl)c(C(=O)Nc2ccccc2N2C(=O)CC(C)(C)C2=O)c1 | > 20 µM

Row | Structure (SMILES) | IC50 [1] | Ratio IC50 [2] | IC50 [3] | EC50 (Cryptosporidium parvum)
9 | CCN(c1ccccc1)S(=O)(=O)c1ccc(Cl)c(C(=O)Nc2ccccc2N2CCCC2=O)c1 | 3.5 µM | 1.4 |  | 3.5 µM
